Test results as given in US20260262643A1, “HERBICIDAL BENZOXAZINES” (FMC CORPORATION, priority 2022, published 2026).

Tests used:
corn [1] = assay: Test C postemergence; assay type: in vivo, Zea mays; details: 10 days
Summary of the method: (§1)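 Seeds sown in loam soil–sand blend received a directed preemergence soil spray of test chemical in non-phytotoxic solvent with surfactant; postemergence plants (2–10 cm, one- to two-leaf stage) were sprayed with the same formulation. Greenhouse-held 10 days, then visually rated for injury versus untreated controls, 0 (no effect) to 100 (complete control).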

galium = assay: Test C postemergence; assay type: in vivo, Galium aparine; details: 10 days
Summary of the method: as §1

ragweed [2] = assay: Test C preemergence; assay type: in vivo, Ambrosia artemisiifolia; details: 0 to 100 scale (0 no effect, 100 complete control)
Summary of the method: as §1

sedge, umbrella = assay: Test D flooded paddy test; assay type: in vivo, Cyperus difformis; details: 250 g ai/ha, applied to paddy water, visual rating after 13 to 14 days, scale 0 to 100 (0 no effect, 100 complete control)
Summary of the method: (§2)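 Seedlings reached the 2-leaf stage, then pots were flooded to 3 cm over the soil surface. Compound was applied into the water, depth was maintained, and plants stayed in the greenhouse 13 to 14 days before visual scoring (0–100) relative to controls.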

wheat [3] = assay: Test C preemergence; assay type: in vivo, Triticum aestivum; details: 0 to 100 scale (0 no effect, 100 complete control)
Summary of the method: as §1

barnyardgrass [4] = assay: Test C postemergence; assay type: in vivo, Echinochloa crusgalli; details: 10 days
Summary of the method: as §1

barnyardgrass [5] = assay: Test D flooded paddy test; assay type: in vivo, Echinochloa crus-galli; details: 250 g ai/ha, applied to paddy water, visual rating after 13 to 14 days, scale 0 to 100 (0 no effect, 100 complete control)
Summary of the method: as §2

oat, wild [6] = assay: Test C postemergence; assay type: in vivo, Avena fatua; details: 10 days
Summary of the method: as §1

kochia [7] = assay: Test C preemergence; assay type: in vivo, Bassia scoparia; details: 0 to 100 scale (0 no effect, 100 complete control)
Summary of the method: as §1

ragweed [8] = assay: Test C postemergence; assay type: in vivo, Ambrosia artemisiifolia; details: 10 days
Summary of the method: as §1

soybean [9] = assay: Test C preemergence; assay type: in vivo, Glycine max; details: 0 to 100 scale (0 no effect, 100 complete control)
Summary of the method: as §1

corn [10] = assay: Test C preemergence; assay type: in vivo, Zea mays; details: 0 to 100 scale (0 no effect, 100 complete control)
Summary of the method: as §1

horseweed = assay: Test C postemergence; assay type: in vivo, Erigeron canadensis; details: 10 days
Summary of the method: as §1

wheat [11] = assay: Test C postemergence; assay type: in vivo, Triticum aestivum; details: 10 days
Summary of the method: as §1

ryegrass, Italian [12] = assay: Test C postemergence; assay type: in vivo, Lolium multiflorum; details: 10 days
Summary of the method: as §1

oat, wild [13] = assay: Test C preemergence; assay type: in vivo, Avena fatua; details: 0 to 100 scale (0 no effect, 100 complete control)
Summary of the method: as §1

soybean [14] = assay: Test C postemergence; assay type: in vivo, Glycine max; details: 10 days
Summary of the method: as §1

rice = assay: Test D flooded paddy test; assay type: in vivo, Oryza sativa; details: 250 g ai/ha, applied to paddy water, visual rating after 13 to 14 days, scale 0 to 100 (0 no effect, 100 complete control)
Summary of the method: as §2

pigweed, palmer [15] = assay: Test C postemergence; assay type: in vivo, Amaranthus palmeri; details: 10 days
Summary of the method: as §1

pigweed, palmer [16] = assay: Test C preemergence; assay type: in vivo, Amaranthus palmeri; details: 0 to 100 scale (0 no effect, 100 complete control)
Summary of the method: as §1

ducksalad = assay: Test D flooded paddy test; assay type: in vivo, Heteranthera limosa; details: 250 g ai/ha, applied to paddy water, visual rating after 13 to 14 days, scale 0 to 100 (0 no effect, 100 complete control)
Summary of the method: as §2

ryegrass, Italian [17] = assay: Test C preemergence; assay type: in vivo, Lolium multiflorum; details: 0 to 100 scale (0 no effect, 100 complete control)
Summary of the method: as §1

green foxtail [18] = assay: Test C preemergence; assay type: in vivo, Setaria viridis; details: 0 to 100 scale (0 no effect, 100 complete control)
Summary of the method: as §1

kochia [19] = assay: Test C postemergence; assay type: in vivo, Bassia scoparia; details: 10 days
Summary of the method: as §1

blackgrass [20] = assay: Test C postemergence; assay type: in vivo, Alopecurus myosuroides; details: 10 days
Summary of the method: as §1

green foxtail [21] = assay: Test C postemergence; assay type: in vivo, Setaria viridis; details: 10 days
Summary of the method: as §1

barnyardgrass [22] = assay: Test C preemergence; assay type: in vivo, Echinochloa crusgalli; details: 0 to 100 scale (0 no effect, 100 complete control)
Summary of the method: as §1

blackgrass [23] = assay: Test C preemergence; assay type: in vivo, Alopecurus myosuroides; details: 0 to 100 scale (0 no effect, 100 complete control)
Summary of the method: as §1

[24] = 125 g ai/ha, postemergence, 0 to 100 scale, 0 no effect, 100 complete control
[25] = Postemergence, 500 g ai/ha, visual 0 to 100 scale (0 no effect, 100 complete control)
[26] = Preemergence, 500 g ai/ha, visual rating after 10 days
[27] = Test C, preemergence, 125 g ai/ha

## CC(C)c1ncn(-c2cc3c(c(C(=O)N4C[C@H](C)Oc5c(Cl)cccc54)c2)OCCCO3)n1 [Compound 158]
Corn [1]; [24]
  Plant response rating, Corn: 50
Corn [1]; [25]
  Plant response rating, Corn: 60
galium; [24]
  Plant response rating, Galium: 100
galium; [25]
  Plant response rating, Galium: 90
Ragweed [2]; [26]
  Plant response rating, Ragweed: 90
Ragweed [2]; [27]
  Ragweed plant response rating: 80
sedge, umbrella
  Plant response rating, Sedge, Umbrella (Flood): 75
Wheat [3]; [26]
  Plant response rating, Wheat: 40
Wheat [3]; [27]
  Wheat plant response rating: 10
Barnyardgrass [4]; [24]
  Plant response rating, Barnyardgrass: 40
Barnyardgrass [4]; [25]
  Plant response rating, Barnyardgrass: 70
Barnyardgrass [5]
  Plant response rating, Barnyardgrass (Flood): 25
oat, wild [6]; [24]
  Plant response rating, Oat, Wild: 30
oat, wild [6]; [25]
  Plant response rating, Oat, Wild: 60
Kochia [7]; [26]
  Plant response rating, Kochia: 90
Kochia [7]; [27]
  Kochia plant response rating: 70
Ragweed [8]; [24]
  Plant response rating, Ragweed: 90
Ragweed [8]; [25]
  Plant response rating, Ragweed: 80
Soybean [9]; [26]
  Plant response rating, Soybean: 80
Soybean [9]; [27]
  Soybean plant response rating: 50
Corn [10]; [26]
  Plant response rating, Corn: 20
Corn [10]; [27]
  Corn plant response rating: 0
horseweed; [24]
  Plant response rating, Horseweed: 20
horseweed; [25]
  Plant response rating, Horseweed: 20
Wheat [11]; [24]
  Plant response rating, Wheat: 30
Wheat [11]; [25]
  Plant response rating, Wheat: 70
ryegrass, Italian [12]; [24]
  Plant response rating, Ryegrass, Italian: 40
ryegrass, Italian [12]; [25]
  Plant response rating, Ryegrass, Italian: 70
oat, wild [13]; [26]
  Plant response rating, Oat, Wild: 80
oat, wild [13]; [27]
  Oat, Wild plant response rating: 20
Soybean [14]; [24]
  Plant response rating, Soybean: 100
Soybean [14]; [25]
  Plant response rating, Soybean: 100
rice
  Plant response rating, Rice (Flood): 0
pigweed, palmer [15]; [24]
  Plant response rating, Pigweed, Palmer: 80
pigweed, palmer [15]; [25]
  Plant response rating, Pigweed, Palmer: 100
pigweed, palmer [16]; [26]
  Plant response rating, Pigweed, Palmer: 100
pigweed, palmer [16]; [27]
  Pigweed, Palmer plant response rating: 100
ducksalad
  Plant response rating, Ducksalad (Flood): 65
ryegrass, Italian [17]; [26]
  Plant response rating, Ryegrass, Italian: 80
ryegrass, Italian [17]; [27]
  Ryegrass, Italian plant response rating: 80
Green foxtail [18]; [26]
  Plant response rating, Foxtail, Green: 100
Green foxtail [18]; [27]
  Foxtail, Green plant response rating: 100
Kochia [19]; [24]
  Plant response rating, Kochia: 70
Kochia [19]; [25]
  Plant response rating, Kochia: 90
Blackgrass [20]; [24]
  Plant response rating, Blackgrass: 40
Blackgrass [20]; [25]
  Plant response rating, Blackgrass: 90
Green foxtail [21]; [24]
  Plant response rating, Foxtail, Green: 60
Green foxtail [21]; [25]
  Plant response rating, Foxtail, Green: 90
Barnyardgrass [22]; 125 g ai/ha, preemergence
  Barnyardgrass plant response rating: 60
Barnyardgrass [22]; [26]
  Plant response rating, Barnyardgrass: 90
Blackgrass [23]; [26]
  Plant response rating, Blackgrass: 60
Blackgrass [23]; [27]
  Blackgrass plant response rating: 40
